In one data set the target is VIM-24 (Escherichia coli, UniProt Q5U7L7, R205L). Nature of the data set: IC50 assay, nitrocefin hydrolysis, VIM-24 (MBL). It counts as biochemical. The protocol: (§1) IC50 assays were performed to determine compound ability to inhibit enzyme.
The next data set addresses PDC-3 (Pseudomonas aeruginosa, UniProt P24735, T105A). Nature of the data set: IC50 assay, nitrocefin hydrolysis, PDC-3 (SBL). The format is biochemical. The protocol:
as §1

In another data set the target is OXA-23 (Acinetobacter baumannii, UniProt Q9L4P2). Kind of data set: IC50 assay, nitrocefin hydrolysis, OXA-23 (SBL). It counts as biochemical. The following applies: nitrocefin 50 μM, 5 min pre-incubation at 25° C.; 50 mM Na Phosphate buffer, pH 7.2, 20 mM Na bicarbonate. As for the experimental part:
as §1

The next data set deals with ADC-7 (Acinetobacter baumannii, UniProt Q6DRA1). Nature of the data set: IC50 assay, nitrocefin hydrolysis, ADC-7 (SBL). The format is biochemical. Conditions: nitrocefin 50 μM, 5 min pre-incubation at 25° C.; 10 mM phosphate-buffered saline, pH 7.4. The protocol: as §1
The next data set deals with VIM-2 (Escherichia coli, UniProt Q5U7L7). Kind of data set: IC50 assay, nitrocefin hydrolysis, VIM-2 (MBL). It counts as biochemical. The following applies: nitrocefin 50 μM, 5 min pre-incubation at 25° C.; 10 mM HEPES pH 7.5, 200 mM NaCl, 50 uM Zn2SO4, 50 ug/ml BSA. The protocol: as §1
A further data set deals with KPC-2 (Klebsiella pneumoniae, UniProt Q9F663). Kind of data set: IC50 assay, nitrocefin hydrolysis, KPC-2 (SBL). It counts as biochemical. Conditions: nitrocefin 50 μM, 5 min pre-incubation at 25° C.; 10 mM phosphate-buffered saline, pH 7.4. As for the experimental part:
as §1

The next data set addresses NDM-1 (Klebsiella pneumoniae, UniProt C7C422). Kind of data set: IC50 assay, nitrocefin hydrolysis, NDM-1 (MBL). It counts as biochemical. The following applies: nitrocefin 50 μM, 5 min pre-incubation at 25° C.; 10 mM HEPES pH 7.5, 200 mM NaCl, 50 uM Zn2SO4, 50 ug/ml BSA. As for the experimental part:
as §1

The target of another data set is IMP-1 (Serratia marcescens, UniProt P52699). Nature of the data set: IC50 assay, nitrocefin hydrolysis, IMP-1 (MBL). It counts as biochemical. Conditions: nitrocefin 50 μM, 5 min pre-incubation at 25° C.; 10 mM HEPES pH 7.5, 200 mM NaCl, 50 uM Zn2SO4, 50 ug/ml BSA. As for the experimental part: as §1

The text below walks through data of patent US9949995B2, “Compositions and methods of treating of bacterial infections with β-lactamase inhibitors” (priority 2015, dated 2018).

Usually melting point stands for the temperature of the solid-liquid transition. As usually defined, the IC50 is the concentration that inhibits the measured activity by half.

SMILES strings stand for the structures.

Sequence of PDC-3 (P24735 27-397 T105A): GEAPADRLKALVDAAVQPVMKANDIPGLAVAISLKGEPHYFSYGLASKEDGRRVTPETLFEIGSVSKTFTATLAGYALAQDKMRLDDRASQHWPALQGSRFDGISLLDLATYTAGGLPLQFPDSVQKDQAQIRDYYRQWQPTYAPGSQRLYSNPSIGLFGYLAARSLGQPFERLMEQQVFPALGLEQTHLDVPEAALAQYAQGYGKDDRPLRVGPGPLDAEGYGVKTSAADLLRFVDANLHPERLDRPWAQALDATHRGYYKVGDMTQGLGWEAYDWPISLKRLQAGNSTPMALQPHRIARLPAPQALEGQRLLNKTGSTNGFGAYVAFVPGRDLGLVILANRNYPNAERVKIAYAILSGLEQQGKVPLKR
Sequence of NDM-1 (C7C422 29-270, looked up): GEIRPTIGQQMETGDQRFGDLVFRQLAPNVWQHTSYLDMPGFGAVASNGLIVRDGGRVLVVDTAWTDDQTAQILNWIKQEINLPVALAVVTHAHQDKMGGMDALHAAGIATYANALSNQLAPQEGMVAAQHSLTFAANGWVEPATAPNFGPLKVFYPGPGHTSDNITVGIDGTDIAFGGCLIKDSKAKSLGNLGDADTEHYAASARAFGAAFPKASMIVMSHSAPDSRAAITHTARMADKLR
Sequence of IMP-1 (P52699 19-246, looked up): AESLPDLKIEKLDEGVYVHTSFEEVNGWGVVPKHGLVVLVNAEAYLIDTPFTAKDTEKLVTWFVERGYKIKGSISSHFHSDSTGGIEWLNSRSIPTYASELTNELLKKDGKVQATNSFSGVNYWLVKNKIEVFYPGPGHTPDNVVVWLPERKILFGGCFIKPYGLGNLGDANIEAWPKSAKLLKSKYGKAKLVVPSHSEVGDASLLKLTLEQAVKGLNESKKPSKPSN
Sequence of KPC-2 (Q9F663 25-293, looked up): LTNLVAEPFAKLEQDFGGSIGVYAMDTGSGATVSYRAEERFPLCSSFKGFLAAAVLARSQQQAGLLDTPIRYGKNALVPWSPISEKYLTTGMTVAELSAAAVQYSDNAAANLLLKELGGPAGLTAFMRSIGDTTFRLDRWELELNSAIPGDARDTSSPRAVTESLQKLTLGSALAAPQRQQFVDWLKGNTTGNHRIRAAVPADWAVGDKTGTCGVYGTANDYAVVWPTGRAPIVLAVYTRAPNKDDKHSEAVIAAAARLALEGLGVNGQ
Sequence of OXA-23 (Q9L4P2 18-273): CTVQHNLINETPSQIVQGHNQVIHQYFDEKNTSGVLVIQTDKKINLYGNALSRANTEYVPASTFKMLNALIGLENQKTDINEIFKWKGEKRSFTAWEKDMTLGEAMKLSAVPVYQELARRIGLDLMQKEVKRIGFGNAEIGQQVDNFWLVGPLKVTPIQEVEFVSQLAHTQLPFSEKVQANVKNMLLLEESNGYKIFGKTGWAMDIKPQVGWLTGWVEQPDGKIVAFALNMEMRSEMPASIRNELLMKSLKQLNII

`OB(O)[C@H](Cc1ccccc1)n1cc(-c2ccccc2)nn1`: the melting point is 151 to 153 °C (dec.).
With `CCOC(=O)c1cn(CB(O)O)nn1`, the melting point is 123 to 125 °C (dec.).
Take `OB(O)[C@H](Cc1ccccc1)n1cc(-c2ccsc2)nn1`: the melting point is 141 to 143 °C (dec.).
Same read-out and setting: next, `O=C(O)c1cccc(C[C@@H](B(O)O)n2cc(-c3ccsc3)nn2)c1`: 185 to 187 °C (dec.).
Consider `O=C(NCc1cn(CB(O)O)nn1)c1ccccc1` [Cmp 1c], for which the IC50 against VIM-24 is over 100 µM; on PDC-3, 26 ± 3 µM; on OXA-23, over 100 µM; against ADC-7, 23 ± 3 µM; against VIM-2, 55 ± 5 µM; on KPC-2, 10.8 ± 1.5 µM. Further, the IC50 at NDM-1 and against IMP-1 was over 100 µM in each case.
In the case of `CCOC(=O)c1cn([C@@H](Cc2cccc(C(=O)O)c2)B(O)O)nn1`, the melting point was 108 to 110 °C (dec.).
With `O=C(NCc1cn(CB(O)O)nn1)Nc1ccccc1` [Cmp 1e], the IC50 is over 100 µM at VIM-24; 10 ± 1 µM on PDC-3; over 100 µM against OXA-23; 14 ± 2 µM at ADC-7; 39 ± 4 µM against VIM-2; 5.2 ± 0.2 µM against KPC-2. Also, the IC50 on NDM-1 and against IMP-1 was over 100 µM throughout.
In the case of `OB(O)Cn1cc(-c2ccccc2)nn1`, the melting point is 122 to 124 °C (dec.).
Same read-out and setting: next, `O=C(O)c1cn([C@@H](Cc2ccccc2)B(O)O)nn1`: 120 to 122 °C (dec.).
On the same count and under the same terms, next, `OB(O)[C@H](Cc1ccccc1)n1cc(COc2ccccc2)nn1`: 113 to 115 °C (dec.).
For the compound `Cc1ccc(S(=O)(=O)NCc2cn(CB(O)O)nn2)cc1` [Cmp 1a], the 50% inhibitory concentration (IC50) was over 100 µM against VIM-24; 9 ± 1 µM against PDC-3; over 100 µM against OXA-23; 24 ± 3 µM against ADC-7; over 100 µM against VIM-2; 1.3 ± 0.1 µM on KPC-2. The IC50 at NDM-1 and on IMP-1 was over 100 µM each time.
For the compound `OB(O)Cn1cc(COc2ccccc2)nn1`, the melting point is 128 to 131 °C (dec.).
Take `O=C(Cc1ccccc1)NCc1cn(CB(O)O)nn1` [Cmp 1d]: the IC50 at VIM-24 was over 100 µM; against PDC-3, 23 ± 3 µM; on OXA-23, over 100 µM; on ADC-7 it was 39 ± 4 µM; against VIM-2, 92 ± 9 µM; against KPC-2, 12 ± 1 µM. Further, the IC50 on NDM-1 and against IMP-1 was over 100 µM each time.
`O=C(O)c1cccc(C[C@@H](B(O)O)n2cc(-c3ccccc3)nn2)c1`: the melting point is 88 to 90 °C (dec.).
Take `OB(O)Cn1cc(-c2ccsc2)nn1`: the melting point is 170 to 172 °C (dec.).
